From PMC6095874, “Discovery of cationic nonribosomal peptides as Gram-negative antibiotics through global genome mining” (Nature Communications, 2018) come the findings set out here.

Values after ≈ are worked out from the molar mass of the structure shown. Read-outs that look alike come from different tables or passages of the source. Where a SMILES comes first, the peptide text is derived from it. Bridges are numbered along the chain shown (N, C = ends). [ ]: non-standard residue; d: D form. The star is where a group is joined. Octanoyl(7-Me) = CC(C)CCCCCC(=O)*; dOrn = NCCC[C@@H](N)C(=O)O; Orn = NCCC[C@H](N)C(=O)O

Series [1] has as its system Pseudomonas aeruginosa PAO1. It is filed as cell-based. The following applies: Supplementary Table 1; Pa = Pseudomonas aeruginosa PAO1. The procedure: (§1) MIC was determined by broth microdilution according to CLSI guidelines. The test medium for most species was Mueller–Hinton broth (MHB). Bacteria were grown overnight to early stationary phase and adjusted in MHB to 5.0 × 10^5 c.f.u. mL^−1 in the wells of 96-well microtiter plates (Falcon® 96-Well Flat-Bottom Microplate, Tissue Culture-Treated), mixed with varying concentrations of test compounds and incubated at 37 °C for 24 h. Cell growth was evaluated by measuring the optical density at 595 nm (Thermo Scientific Multiskan FC multiplate photometer) (Waltham, MA, USA), and the MIC was defined as the lowest compound concentration at which no bacterial growth was observed. MHBs containing 10% fetal bovine serum (Gibco), 21 mM MgCl, or 1.0 mg mL^−1 LPS (lipopolysaccharides from E. coli O55:B5, Sigma-Aldrich) was used to test their inhibitory effects.

The next series relates to Gram-negative bacteria. It is filed as cell-based. The procedure: as §1
The test system of series [2] is Staphylococcus aureus (MRSA). It is filed as cell-based. The following applies: 24 h. On the procedure:
as §1

Series [3] has as its system E. coli TOP10 cells. Description: Time-kill assay. The series is classed as cell-based, Escherichia coli. On the procedure:
(§2) An overnight culture of E. coli TOP10 cells was diluted 1:10,000 in MHB and incubated at 37 °C with agitation at 180 rpm for 2 h (early exponential). The bacteria were then challenged with brevicidine (20 μg mL^−1), laterocidine (20 μg mL^−1), or polymyxin B (10 μg mL^−1) at ten times the MIC at room temperature without shaking. An untreated sample of cells was used as a negative control. At intervals, 10 μL aliquots were removed, centrifuged at 10,000 × g for 1 min and resuspended in 1.0 mL of sterile PBS. Tenfold serially diluted suspensions were plated on MHB agar plates and incubated at 37 °C overnight. Colonies were counted and the number of c.f.u. per mL was calculated. For analysis of lysis, 300 μL of culture (OD600 = 1.0) were treated with antibiotics at ten times the MIC for 24 h. Experiments were performed in triplicate.

Series [4] has as its system Colistin-resistant E. coli (E. coli ATCC 25922 carrying mcr-1). In words: MIC by broth microdilution. Conditions: MHB, 37 °C, 24 h. The series is classed as cell-based, Escherichia coli. On the procedure: as §1
In a further series the test system is E. coli. In words: Lysis assay. The following applies: ten times the MIC, culture OD600 = 1.0, 24 h. The series is classed as cell-based, Escherichia coli. On the procedure:
as §2

In another series the test system is Human HeLa cells. The following applies: concentrations up to 128 μg mL^−1, 48 h, 37 °C, MTT, absorbance 570 nm.
In series [5] the test system is E. coli ATCC 25922. In words: Neutropenic mouse thigh infection model. It is filed as in vivo. The following applies: laterocidine 15 mg kg^−1 twice s.c., five mice, after 26 h, Mann–Whitney P < 0.01. The procedure:
Given the low risk of resistance and the attractive mode of action of 1–2, an animal efficacy study was then performed in a mouse thigh model. Mice were intramuscularly infected with 1.50 × 10^6 c.f.u. of E. coli ATCC 25922. Two hours post infection, brevicidine (30 mg kg^−1) or laterocidine (15 mg kg^−1) was subcutaneously injected at two doses. […] In particular, compound 1 was highly efficacious in mice infected with E. coli and caused a 5 log10 reduction in c.f.u. in the thigh compared to the vehicle control after 24 h (Fig. 4f).
In vivo activities of brevicidine and laterocidine were tested using the mouse thigh infection model. Animal studies were performed by Pharmacology Discovery Services Taiwan Ltd. in general accordance with standard guidelines on animal welfare[38] in an AAALAC-accredited facility. The protocol was reviewed and approved by the Institutional Animal Care and Use Committee. Groups of five female-specific pathogen-free ICR (CD-1) mice weighing 22 ± 2 g (~5 weeks of age) were used. Animals were immunosuppressed with two intraperitoneal injections of cyclophosphamide, the first at 150 mg kg^−1 4 days before infection (day −4) and the second at 100 mg kg^−1 1 day before infection (day −1). On day 0, animals were inoculated intramuscularly (0.1 mL per thigh) in the right thigh with an E. coli ATCC 25922 suspension. Vehicle (10% DMSO, 1% Tween 80, 0.9% NaCl) and antibiotics were then subcutaneously injected 2 and 8 h later. Due to the limited availability of compounds 1–2, only one concentration of 1 (30 mg kg^−1) or 2 (15 mg kg^−1) was used in the present study. Precisely 26 h after inoculation, animals were euthanized by CO2 asphyxiation before their right thigh muscles were harvested. The removed muscles were homogenized in 5 mL of PBS, pH 7.4, with a Polytron homogenizer. Homogenates in the amount of 0.1 mL were used for serial tenfold dilutions and plated onto a nutrient agar medium for colony count (in c.f.u. g^−1) determination. No randomization or blinding was necessary for the animal infection models, and no samples were excluded.

For a further series, the system named is Saccharomyces cerevisiae. It is filed as cell-based. Conditions: 24 h.
Series [6] deals with Escherichia coli ATCC 25922. In words: microbe, parasite or virus in culture. The series is classed as cell-based. Conditions: Supplementary Table 1; Ec = Escherichia coli ATCC 25922. On the procedure:
as §1

A further series deals with rabbit erythrocytes. The following applies: concentrations up to 128 μg mL^−1, 2% (v/v) rabbit erythrocytes in PBS, 1 h, 37 °C, absorbance 570 nm, vs 10% Triton X-100.
Series [7] has as its system E. coli TOP10 cells. Description: Bacterial growth kinetics. Conditions: OD600 of cells exposed to antibiotics (Fig. 4: two times the MIC). The series is classed as cell-based, Escherichia coli. On the procedure: A single fresh colony of E. coli TOP10 cells was inoculated into MHB (5 mL) and grown with shaking at 225 rpm overnight. The bacteria were diluted to 1 × 10^5 c.f.u. mL^−1 in fresh MHB, grown […] to early log-phase (OD600 = 0.15) and treated with the antibiotics of interest in the wells of a 96-well plate. Final antibiotic concentrations varied from one to eight times the MIC. The plate was then incubated at 30 °C overnight, with OD600 measurements taken every 30 s.

Series [8] deals with E. coli ATCC 25922. In words: Resistance acquisition during serial passaging. It is filed as cell-based, Escherichia coli. Conditions: subinhibitory concentrations, 30-day period, MHB, 37 °C, quadruplicate. The procedure:
E. coli ATCC 25922 was inoculated into MHB overnight at 37 °C with continuous shaking. Cells were diluted 10,000 times in MHB to about 1 × 10^6 c.f.u. mL^−1. Ten µL aliquots were drawn to a 96-well plate containing 90 µL of serially diluted brevicidine, laterocidine, and ciprofloxacin, at final concentrations of 0.5×, 1×, 1.5×, 2×, and 4× MIC. […] Plates with bacteria were incubated at 37 °C without shaking. […] This process was repeated for 30 days, and the final MIC was confirmed by the same antibacterial assay as the one described above. The experiment was performed in quadruplicate, and on each day, the sample that developed the highest resistance was measured to plot the curve. For single-step resistance, E. coli ATCC 25922 cells at 10^8 c.f.u. were plated onto Mueller–Hinton agar containing 4× MIC of brevicidine.

Another series concerns Acinetobacter baumannii. Description: MIC by broth microdilution. The following applies: Supplementary Table 1. It is filed as cell-based. The procedure: as §1
The next series has as its system Bacillus subtilis 168. In words: MIC by broth microdilution. It is filed as cell-based. Conditions: Supplementary Table 1; Bs = B. subtilis 168. On the procedure: as §1
In series [9] the test system is Klebsiella pneumoniae NRRL-B-408. Description: MIC by broth microdilution. Conditions: Supplementary Table 1; Kp = Klebsiella pneumoniae NRRL-B-408. It is filed as cell-based. On the procedure: as §1
In series [10] the test system is Enterobacter cloacae NRRL-B-413. In words: MIC by broth microdilution. It is filed as cell-based. Conditions: Supplementary Table 1; En = Enterobacter cloacae NRRL-B-413. On the procedure:
as §1

The test system of a further series is E. cloacae NRRL-B-425. It is filed as cell-based, Enterobacter cloacae. Conditions: NRRL-B-425, 24 h. The procedure: as §1
For series [11], the system named is K. pneumoniae NRRL-B-3521. It is filed as cell-based, Klebsiella pneumoniae. Conditions: NRRL-B-3521, 24 h. On the procedure:
as §1

The next series concerns Candida albicans. The series is classed as cell-based. Conditions: 24 h.

Protocol for Human HeLa cells: Human HeLa cells were used in the assay. Ninety μL of 1 × 10^5 mL^−1 cells were placed into the wells of 96-microwell plates. After 12 h, 10 μL of a medium containing test compounds at various concentrations were added to the cells which were then incubated at 37 °C for 48 h. Afterward, the supernatant was removed and 20 μL of MTT (3-(4,5-Dimethylthiazol-2-yl)-2,5-Diphenyltetrazolium Bromide) (2.5 mg mL^−1) in PBS were added to each well. After incubation at 37 °C for 3 h, 80 μL of dimethyl sulfoxide (DMSO) were added to each well and incubated for an additional 15 min. The absorbance was then measured at 570 nm with a Thermo Scientific Multiskan FC multiplate photometer.
Protocol for rabbit erythrocytes: Hemolytic activity was determined with red blood cells freshly isolated from healthy rabbits. […] The cells were incubated for 1 h at 37 °C and centrifuged for 5 min at 10,000 × g. The supernatant was transferred to a 96-well plate and the absorbance was measured at a wavelength of 570 nm with a Thermo Scientific Multiskan FC multiplate photometer. The absorbance relative to the positive control, which was treated with 10% Triton X-100, was defined as the percentage of hemolysis.

With `CC[C@H](C)[C@@H]1NC(=O)[C@@H](NC(=O)[C@H](Cc2c[nH]c3ccccc23)NC(=O)[C@@H](CCCN)NC(=O)CNC(=O)[C@H](CCCN)NC(=O)[C@@H](CCCN)NC(=O)[C@@H](Cc2c[nH]c3ccccc23)NC(=O)[C@@H](Cc2ccc(O)cc2)NC(=O)[C@@H](CO)NC(=O)CCCCCC(C)C)[C@@H](C)OC(=O)CNC(=O)CNC(=O)[C@H](CC(N)=O)NC1=O` [Compound 2, laterocidine] ({Octanoyl(7-Me)}-[dS][dY][dW][dOrn][Orn]G[dOrn]WTINGG; ester 9-C), the “MIC, Pa” value in series [1] worked out at 2 µg/mL (≈ 1.25 µM). Also, the “MIC values against Gram-negative bacteria” value lay within 0.66 to 10.5 µM against Gram-negative bacteria (24 h); 1 to 16 µg/mL against Gram-negative bacteria (range over Gram-negative strains incl. P. aeruginosa and colistin-resistant E. coli). The MIC is greater than 64 µg/mL in [2]; 2 µg/mL (≈ 1.25 µM) in series [4]; greater than 64 µg/mL against Saccharomyces cerevisiae; 2 µg/mL (≈ 1.25 µM) against E. cloacae NRRL-B-425; 4 µg/mL (≈ 2.49 µM) in [11]; greater than 64 µg/mL against Candida albicans. Moreover, the “bactericidal action against E. coli” value in the series with E. coli TOP10 cells [3] (as revealed by growth kinetics, time-kill assay and lysis assay) is listed as “bactericidal”. Moreover, in the series with E. coli TOP10 cells [3] (ten times the MIC, early exponential cells, room temperature, c.f.u. counts, triplicate), the “cell viability in time-kill assay” value is reported as “significant reduction after 30 min”. Further, the “lysis of E. coli cells” value in the series with E. coli is “completely lysed”. In the series with Human HeLa cells, the “toxicity against the human cell line HeLa” value is “nor showed significant toxicity”. For the same compound, the “viable bacteria in thigh” value in the series on E. coli ATCC 25922 [5] was “reduced number of viable bacteria”. Further, the “MIC, Ec” value in [6] stood at 2 µg/mL (≈ 1.25 µM). The “lysis of erythrocytes (hemolysis)” value in the series with rabbit erythrocytes is given as “neither caused the lysis of erythrocytes”. In the series with E. coli TOP10 cells [7], the “growth kinetics of E. coli cells exposed to compound” value is reported as “grew at a reduced rate for 30 min”. For the same compound, in the series with E. coli ATCC 25922 [8], the “resistance development during serial passaging” value was “did not develop resistance”. In the series with Acinetobacter baumannii, the “MIC, Ab” value was determined as 4 µg/mL (≈ 2.49 µM). Moreover, the “MIC, Bs” value in the series on Bacillus subtilis 168 was determined as 32 µg/mL (≈ 19.9 µM). Further, the “MIC, Kp” value in series [9] is 4 µg/mL (≈ 2.49 µM). Moreover, the “MIC, En” value in series [10] is 2 µg/mL (≈ 1.25 µM).
